PMC9226124, “Macrocycle-stabilization of its interaction with 14-3-3 increases plasma membrane localization and activity of CFTR” (Nature Communications, 2022)
“And” between values parts separate entries of the source, which are not always exact repeats. Equal entries are not always repeated.

How the values were obtained:
[1] = target: T1, 14-3-3β/CFTRpS753pS768 complex (Homo sapiens, UniProt P13569+P31946); assay: FP assay, 14-3-3β titration at constant compound concentration (apparent KD); type: binding; conditions: replicates
T1 construct: His6 (cleaved yes); made in house; peptide synthetic

[2] = target: T1, 14-3-3β/CFTRpS753pS768 complex; assay: Dose-response fluorescence polarization (FP) assay, compound titration; type: binding; conditions: for FP signal: With 14-3-3
Outline: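 Compounds were titrated in two-fold dilutions against 10 μM 14-3-3β and FITC-CFTR pS753pS768 peptide (100 nM or 10 nM). Buffer: 10 mM HEPES pH 7.4, 150 mM NaCl, 0.1% Tween20, 1 mg/mL BSA. Polarization was read at ex 485/em 535 nm, and EC50 was derived from a four-parameter variable-slope fit.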

T1 sequence (P31946 whole entry): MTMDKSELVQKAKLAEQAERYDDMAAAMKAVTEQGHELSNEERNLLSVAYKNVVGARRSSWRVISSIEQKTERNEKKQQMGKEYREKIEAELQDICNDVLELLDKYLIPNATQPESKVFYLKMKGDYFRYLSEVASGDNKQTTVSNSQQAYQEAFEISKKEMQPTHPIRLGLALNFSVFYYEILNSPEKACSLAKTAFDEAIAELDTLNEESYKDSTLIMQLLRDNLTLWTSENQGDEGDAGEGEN
T1 sequence (P13569 747-774 limits assumed): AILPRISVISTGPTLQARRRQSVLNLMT

- FP signal, 14-3-3β titration ([1]; 14-3-3β 7.62939e-9 M, FC-A + CY compound): 7 and 2 and -1
- FP signal, 14-3-3β titration ([1]; 14-3-3β 7.62939e-9 M, compound 100 μM): 6 and 5
- FP signal, 14-3-3β titration ([1]; 14-3-3β 1.52588e-8 M, FC-A + CY compound): 5 (2×) and 6
- FP signal, 14-3-3β titration ([1]; 14-3-3β 1.52588e-8 M, compound 100 μM): 0 and 3 and 4
- FP signal, 14-3-3β titration ([1]; 14-3-3β 3.05176e-8 M, FC-A + CY compound): 12 and 13 and 8
- FP signal, 14-3-3β titration ([1]; 14-3-3β 3.05176e-8 M, compound 100 μM): 4 and 5 and 3
- FP signal, 14-3-3β titration ([1]; 14-3-3β 6.10352e-8 M, FC-A + CY compound): 19 and 17 (2×)
- FP signal, 14-3-3β titration ([1]; 14-3-3β 6.10352e-8 M, compound 100 μM): 3 (2×) and 5
- FP signal, 14-3-3β titration ([1]; 14-3-3β 1.2207e-7 M, FC-A + CY compound): 30 and 33 and 27
- FP signal, 14-3-3β titration ([1]; 14-3-3β 1.2207e-7 M, compound 100 μM): 6 and 5 and 8
- FP signal, 14-3-3β titration ([1]; 14-3-3β 2.44141e-7 M, FC-A + CY compound): 51 and 57 and 45
- FP signal, 14-3-3β titration ([1]; 14-3-3β 2.44141e-7 M, compound 100 μM): 8 (2×) and 7
- FP signal, 14-3-3β titration ([1]; 14-3-3β 4.88281e-7 M, FC-A + CY compound): 76 and 79 and 69
- FP signal, 14-3-3β titration ([1]; 14-3-3β 4.88281e-7 M, compound 100 μM): 10 and 8 and 12
- FP signal, 14-3-3β titration ([1]; 14-3-3β 9.76563e-7 M, FC-A + CY compound): 99 and 95 and 89
- FP signal, 14-3-3β titration ([1]; 14-3-3β 9.76563e-7 M, compound 100 μM): 16 and 15 and 18
- FP signal, 14-3-3β titration ([1]; 14-3-3β 1.95313e-6 M, FC-A + CY compound): 108 (2×) and 110
- FP signal, 14-3-3β titration ([1]; 14-3-3β 1.95313e-6 M, compound 100 μM): 24 (2×) and 28
- FP signal, 14-3-3β titration ([1]; 14-3-3β 3.90625e-6 M, FC-A + CY compound): 119 (2×) and 117
- FP signal, 14-3-3β titration ([1]; 14-3-3β 3.90625e-6 M, compound 100 μM): 31 and 32 and 33
- FP signal, 14-3-3β titration ([1]; 14-3-3β 7.8125e-6 M, FC-A + CY compound): 126 and 127 and 121
- FP signal, 14-3-3β titration ([1]; 14-3-3β 7.8125e-6 M, compound 100 μM): 35 and 40 and 41
- FP signal, 14-3-3β titration ([1]; 14-3-3β 1.5625e-5 M, FC-A + CY compound): 132 and 128 and 129
- FP signal, 14-3-3β titration ([1]; 14-3-3β 1.5625e-5 M, compound 100 μM): 49 and 50 and 52
- FP signal, 14-3-3β titration ([1]; 14-3-3β 3.125e-5 M, FC-A + CY compound): 138 and 136 and 135
- FP signal, 14-3-3β titration ([1]; 14-3-3β 3.125e-5 M, compound 100 μM): 64 and 62 and 65
- FP signal, 14-3-3β titration ([1]; 14-3-3β 6.25e-5 M, FC-A + CY compound): 143 and 145
- FP signal, 14-3-3β titration ([1]; 14-3-3β 6.25e-5 M, compound 100 μM): 87 and 83 and 85
- FP signal, 14-3-3β titration ([1]; 14-3-3β 0.000125 M, FC-A + CY compound): 156 and 151 and 152
- FP signal, 14-3-3β titration ([1]; 14-3-3β 0.000125 M, compound 100 μM): 104 and 106 and 103
- FP signal, 14-3-3β titration ([1]; 14-3-3β 0.00025 M, FC-A + CY compound): 165 and 159 and 157
- FP signal, 14-3-3β titration ([1]; 14-3-3β 0.00025 M, compound 100 μM): 119 (2×) and 122
- FP signal, 14-3-3β titration ([1]; 14-3-3β 0.0005 M, FC-A + CY compound): 177 and 175 and 169
- FP signal, 14-3-3β titration ([1]; 14-3-3β 0.0005 M, compound 100 μM): 151 and 144 and 146
- EC50 ([2]; 14-3-3β 10 μM, labeled CFTRpS753pS768 100 nM, read-out: EC50): 275 µM
- FP signal ([2]; compound 453 pM): 1
- FP signal ([2]; compound 906 pM): 2
- FP signal ([2]; compound 1.81198e-9 M): 2
- FP signal ([2]; compound 3.62396e-9 M): 3
- FP signal ([2]; compound 7.24792e-9 M): 3
- FP signal ([2]; compound 1.44958e-8 M): 1
- FP signal ([2]; compound 2.89917e-8 M): 3
- FP signal ([2]; compound 5.79834e-8 M): 4
- FP signal ([2]; compound 1.15967e-7 M): 3
- FP signal ([2]; compound 2.31934e-7 M): 4
- FP signal ([2]; compound 4.63867e-7 M): 6
- FP signal ([2]; compound 9.27734e-7 M): 3
- FP signal ([2]; compound 1.85547e-6 M): 3
- FP signal ([2]; compound 3.71094e-6 M): 4
- FP signal ([2]; compound 7.42187e-6 M): 6
- FP signal ([2]; compound 1.48437e-5 M): 6
- FP signal ([2]; compound 2.96875e-5 M): 6
- FP signal ([2]; compound 5.9375e-5 M): 26
- FP signal ([2]; compound 0.00011875 M): 67
- FP signal ([2]; compound 0.0002375 M): 127
- FP signal ([2]; compound 0.000475 M): 188
- FP signal ([2]; compound 0.00095 M): 241
Compound: N=C(N)NCCCC1NC(=O)C(CCC(N)=O)NC(=O)C(CCCNC(=N)N)NC(=O)C2CCCN2Cc2ccccc2Sc2ccccc2CNC1=O (stereo not drawn) [CY007502]
